Measurements as given in EP3046573B1, “AMYLIN ANALOGUES” (Zealand Pharma A/S, priority 2013, dated 2015).
Like-named read-outs stand apart in the source and are kept apart here. Numbered stars: 1 amine (or outer) side, 2 acyl side, 3 side chain; on linkers, the order of the positions; unused ones are H or OH. Bridge positions count the residues as written; N and C are the ends. Square brackets hold non-standard residues; d marks the D form. Peptide text beside a SMILES is read from it. * marks the point of attachment. C20 diacid = O=C(O)CCCCCCCCCCCCCCCCCCC(=O)*; γGlu = O=C(O)[C@H](CCC(=O)[*:2])N[*:1]; NMeI = CC[C@H](C)[C@H](NC)C(=O)O; Dab = NCC[C@H](N)C(=O)O; Sar = CNCC(=O)O

Key:
[1] = target: T1, human calcitonin receptor (hCTR2) (Homo sapiens, UniProt P30988); experiment: hCTR2 assay: induction of cAMP (AlphaScreen cAMP Assay kit) in COS7 cells expressing hCTR2; assay type: cell-based
T1 construct: expressed in transfected cells
T1 sequence (P30988 25-474): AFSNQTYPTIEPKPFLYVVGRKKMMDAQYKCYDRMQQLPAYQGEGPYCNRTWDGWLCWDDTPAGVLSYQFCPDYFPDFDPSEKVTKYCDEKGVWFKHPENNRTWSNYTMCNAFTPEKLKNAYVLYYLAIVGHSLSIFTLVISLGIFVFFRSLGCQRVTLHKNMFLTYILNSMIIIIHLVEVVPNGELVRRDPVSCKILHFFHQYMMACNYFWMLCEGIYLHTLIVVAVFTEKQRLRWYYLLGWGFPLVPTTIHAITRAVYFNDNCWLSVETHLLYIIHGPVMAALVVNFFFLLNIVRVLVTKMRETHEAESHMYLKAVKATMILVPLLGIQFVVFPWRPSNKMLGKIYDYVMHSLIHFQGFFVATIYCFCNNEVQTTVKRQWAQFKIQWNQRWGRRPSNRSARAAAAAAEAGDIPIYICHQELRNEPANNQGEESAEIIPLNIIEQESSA
Procedure, shortened: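 Peptide-induced cAMP in hCTR2-expressing COS7 cells, 15 min at 37° C with phosphodiesterase inhibitor IBMX (100 µM), detected by AlphaScreen; potency from 4PL curves.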

[2] = Solubility assessment (turbidity absorbance at 325 nm); assay type: physicochemical; settings: stock 2 mg/ml diluted 1:1, ambient temperature (typically 25°C), n=1; for Solubility, Acetate buffer pH 4: 100 mM acetate buffer pH 4.0; for Solubility, Acetate buffer pH 5: 100 mM acetate buffer pH 5.0; for Solubility, Histidine buffer pH 6: 100 mM histidine buffer pH 6.0; for Solubility, Histidine buffer pH 7: 100 mM histidine buffer pH 7.0; for Solubility, Phosphate buffer pH 6: 100 mM phosphate buffer pH 6.0; for Solubility, Phosphate buffer pH 7: 100 mM phosphate buffer pH 7.0; for Solubility, Phosphate buffer pH 7.5: 100 mM phosphate buffer pH7.5
Procedure, shortened: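 Read-out: turbidity as absorbance at 325 nm (280 nm also read), single samples, ambient temperature of typically 25°C. Samples were a 1:1 mix of 2 mg/ml stock (water, pH 2.5) with 100 mM acetate, histidine or phosphate buffers spanning pH 4.0–7.5. Cut-off: A325 ≤ 0.02 indicates ≥ 1 mg/ml.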

Structure (SMILES) | EC50 [1] | Solubility, Acetate buffer pH 4 [2] | Solubility, Acetate buffer pH 5 [2] | Solubility, Histidine buffer pH 6 [2] | Solubility, Histidine buffer pH 7 [2] | Solubility, Phosphate buffer pH 6 [2] | Solubility, Phosphate buffer pH 7 [2] | Solubility, Phosphate buffer pH 7.5 [2] | EC50 ([1]; cAMP induction in COS7 cells expressing hCTR2, average of a minimum of 3 determinations, read-out: hCTR2 EC50)
CC[C@H](C)[C@@H](C(=O)N[C@@H](CC(C)C)C(=O)N[C@@H](CO)C(=O)N[C@@H](CO)C(=O)N[C@H](C(=O)N[C@@H](CC(N)=O)C(=O)N[C@H](C(=O)NCC(=O)N[C@@H](CO)C(=O)N[C@@H](CC(N)=O)C(=O)N[C@H](C(=O)N1CCC[C@H]1C(N)=O)[C@@H](C)O)C(C)C)[C@@H](C)O)N(C)C(=O)[C@H](C)NC(=O)CN(C)C(=O)[C@H](Cc1ccccc1)NC(=O)[C@H](CC(N)=O)NC(=O)[C@H](CC(N)=O)NC(=O)[C@H](CO)NC(=O)[C@H](CO)NC(=O)[C@H](Cc1c[nH]cn1)NC(=O)[C@H](CC(C)C)NC(=O)[C@H](Cc1ccccc1)NC(=O)[C@H](CCC(=O)O)NC(=O)[C@H](C)NC(=O)[C@H](CC(C)C)NC(=O)[C@H](CCCNC(=N)N)NC(=O)[C@H](CCC(N)=O)NC(=O)[C@@H](NC(=O)[C@H](C)NC(=O)[C@@H]1CSSC[C@H](NC(=O)[C@H](CCCNC(=N)N)NC(=O)CC[C@H](NC(=O)CCCCCCCCCCCCCCCCCCC(=O)O)C(=O)O)C(=O)N[C@@H](CC(N)=O)C(=O)N[C@@H]([C@@H](C)O)C(=O)N[C@@H](C)C(=O)N[C@@H]([C@@H](C)O)C(=O)N1)[C@@H](C)O [Compound 39, [19CD]-isoGlu-RC()NTATC()ATQRLAEFLHSSNNF-Gly(Me)-A-Ile(Me)-LSSTNVGSNTP-NH2] ({C20 diacid-γGlu}-RCNTATCATQRLAEFLHSSNNF[Sar]A[NMeI]LSSTNVGSNTP-NH2; disulfide 2-7) | 0.19 nM | SS (SS indicates solubility ≥ 1mg/ml) | SS (SS indicates solubility ≥ 1mg/ml) | SS (SS indicates solubility ≥ 1mg/ml) | SS (SS indicates solubility ≥ 1mg/ml) | SS (SS indicates solubility ≥ 1mg/ml) | SS (SS indicates solubility ≥ 1mg/ml) | SS (SS indicates solubility ≥ 1mg/ml) | –
CC[C@H](C)[C@@H](C(=O)N[C@@H](CC(C)C)C(=O)N[C@@H](CO)C(=O)N[C@@H](CO)C(=O)N[C@H](C(=O)N[C@@H](CCC(=O)O)C(=O)N[C@H](C(=O)NCC(=O)N[C@@H](CO)C(=O)N[C@@H](CCC(=O)O)C(=O)N[C@H](C(=O)N1CCC[C@H]1C(N)=O)[C@@H](C)O)C(C)C)[C@@H](C)O)N(C)C(=O)CN(C)C(=O)[C@H](Cc1ccccc1)NC(=O)[C@H](CO)NC(=O)[C@H](CO)NC(=O)[C@H](CCCNC(=N)N)NC(=O)[C@H](Cc1c[nH]cn1)NC(=O)[C@H](CC(C)C)NC(=O)[C@H](Cc1ccccc1)NC(=O)[C@H](CCC(=O)O)NC(=O)[C@H](C)NC(=O)[C@H](CC(C)C)NC(=O)[C@H](CCCNC(=N)N)NC(=O)[C@H](CCC(N)=O)NC(=O)[C@@H](NC(=O)[C@H](C)NC(=O)[C@@H]1CSSC[C@H](NC(=O)[C@H](CCCNC(=N)N)NC(=O)CC[C@H](NC(=O)CCCCCCCCCCCCCCCCCCC(=O)O)C(=O)O)C(=O)N[C@@H](CC(N)=O)C(=O)N[C@@H]([C@@H](C)O)C(=O)N[C@@H](C)C(=O)N[C@@H]([C@@H](C)O)C(=O)N1)[C@@H](C)O [Compound 95, [19CD]-isoGlu-RC()NTATC()ATQRLAEFLHRSSF-Gly(Me)-Ile(Me)-LSSTEVGSETP-NH2] ({C20 diacid-γGlu}-RCNTATCATQRLAEFLHRSSF[Sar][NMeI]LSSTEVGSETP-NH2; disulfide 2-7) | – | SS (SS indicates solubility ≥ 1mg/ml) | SS (SS indicates solubility ≥ 1mg/ml) | SS (SS indicates solubility ≥ 1mg/ml) | SS (SS indicates solubility ≥ 1mg/ml) | SS (SS indicates solubility ≥ 1mg/ml) | SS (SS indicates solubility ≥ 1mg/ml) | SS (SS indicates solubility ≥ 1mg/ml) | 0.082 nM
CC[C@H](C)[C@@H](C(=O)N[C@@H](CC(C)C)C(=O)N[C@@H](CO)C(=O)N[C@@H](CO)C(=O)N[C@H](C(=O)N[C@@H](CC(N)=O)C(=O)N[C@H](C(=O)NCC(=O)N[C@@H](CO)C(=O)N[C@@H](CC(N)=O)C(=O)N[C@H](C(=O)N1CCC[C@H]1C(N)=O)[C@@H](C)O)C(C)C)[C@@H](C)O)N(C)C(=O)[C@H](C)NC(=O)CN(C)C(=O)[C@H](Cc1ccccc1)NC(=O)[C@H](CC(N)=O)NC(=O)[C@H](CC(N)=O)NC(=O)[C@H](CO)NC(=O)[C@H](CO)NC(=O)[C@H](Cc1c[nH]cn1)NC(=O)[C@H](Cc1c[nH]cn1)NC(=O)[C@H](CC(C)C)NC(=O)[C@H](Cc1ccccc1)NC(=O)[C@H](CCC(=O)O)NC(=O)[C@H](C)NC(=O)[C@H](CC(C)C)NC(=O)[C@H](CCCNC(=N)N)NC(=O)[C@H](CCC(N)=O)NC(=O)[C@@H](NC(=O)[C@H](C)NC(=O)[C@@H]1CSSC[C@H](NC(=O)[C@H](CCCCN)NC(=O)CC[C@H](NC(=O)CCCCCCCCCCCCCCCCCCC(=O)O)C(=O)O)C(=O)N[C@@H](CC(N)=O)C(=O)N[C@@H]([C@@H](C)O)C(=O)N[C@@H](C)C(=O)N[C@@H]([C@@H](C)O)C(=O)N1)[C@@H](C)O [Compound 19, [19CD]-isoGlu-KC()NTATC()ATQRLAEFLHHSSNNF-Gly(Me)-A-Ile(Me)-LSSTNVGSNTP-NH2] ({C20 diacid-γGlu}-KCNTATCATQRLAEFLHHSSNNF[Sar]A[NMeI]LSSTNVGSNTP-NH2; disulfide 2-7) | 0.071 nM | SS (SS indicates solubility ≥ 1mg/ml) | SS (SS indicates solubility ≥ 1mg/ml) | SS (SS indicates solubility ≥ 1mg/ml) | SS (SS indicates solubility ≥ 1mg/ml) | SS (SS indicates solubility ≥ 1mg/ml) | SS (SS indicates solubility ≥ 1mg/ml) | SS (SS indicates solubility ≥ 1mg/ml) | –
CC[C@H](C)[C@@H](C(=O)N[C@@H](CC(C)C)C(=O)N[C@@H](CO)C(=O)N[C@@H](CO)C(=O)N[C@H](C(=O)N[C@@H](CC(N)=O)C(=O)N[C@H](C(=O)NCC(=O)N[C@@H](CO)C(=O)N[C@@H](CC(N)=O)C(=O)N[C@H](C(=O)N1CCC[C@H]1C(N)=O)[C@@H](C)O)C(C)C)[C@@H](C)O)N(C)C(=O)[C@H](C)NC(=O)CN(C)C(=O)[C@H](Cc1ccccc1)NC(=O)[C@H](CC(N)=O)NC(=O)[C@H](CC(N)=O)NC(=O)[C@H](CO)NC(=O)[C@H](CO)NC(=O)[C@H](Cc1c[nH]cn1)NC(=O)[C@H](Cc1c[nH]cn1)NC(=O)[C@H](CC(C)C)NC(=O)[C@H](Cc1ccccc1)NC(=O)[C@H](CCC(=O)O)NC(=O)[C@H](C)NC(=O)[C@H](CC(C)C)NC(=O)[C@H](CCCNC(=N)N)NC(=O)[C@H](CCC(N)=O)NC(=O)[C@@H](NC(=O)[C@H](C)NC(=O)[C@@H]1CSSC[C@H](NC(=O)[C@H](CCN)NC(=O)CC[C@H](NC(=O)CCCCCCCCCCCCCCCCCCC(=O)O)C(=O)O)C(=O)N[C@@H](CC(N)=O)C(=O)N[C@@H]([C@@H](C)O)C(=O)N[C@@H](C)C(=O)N[C@@H]([C@@H](C)O)C(=O)N1)[C@@H](C)O [Compound 63, [19CD]-isoGlu-Dab-C()NTATC()ATQRLAEFLHHSSNNF-Gly(Me)-A-Ile(Me)-LSSTNVGSNTP-NH2] ({C20 diacid-γGlu}-[Dab]CNTATCATQRLAEFLHHSSNNF[Sar]A[NMeI]LSSTNVGSNTP-NH2; disulfide 2-7) | 0.2 nM | SS (SS indicates solubility ≥ 1mg/ml) | II (II indicates solubility ≤ 1 mg/ml) | SS (SS indicates solubility ≥ 1mg/ml) | SS (SS indicates solubility ≥ 1mg/ml) | SS (SS indicates solubility ≥ 1mg/ml) | SS (SS indicates solubility ≥ 1mg/ml) | SS (SS indicates solubility ≥ 1mg/ml) | –
